How the values were obtained:
RABBIT PLATELETS [1] = assay: Aggregation of washed platelets induced by PAF (turbidimetric, lumiaggregometer); type: cell-based, rabbits (male, albino, New Zealand); details: Oryctolagus cuniculus, Platelet; compound 10 µM; 1-PAF 1.92 nM; pre-incubation 5 minutes; average of six experiments in triplicate
Experimental: (§1) • 1. STUDIES ON WASHED PLATELETS • 1.1.Aggregation The suspensions of washed platelets were obtained from the blood of rabbits (male, albino, New Zealand) anticoagulated with a citric acid-dextrose solution in the proportion 1:6 (v:v.) The platelet rich plasma (PRP) was obtained by centrifuging the blood samples at 100xg for 10 minutes and the platelet suspensions by centrifuging the PRP at 1,800xg for 15 minutes at 4° C. The pellet thus obtained was washed twice with Tyrode buffer containing citric acid, PGE₁ and apirase, pH 6.5. The platelets thus washed were finally resuspended in Hepes-Tyrode buffer, pH 7.35, supplemented with bovine albumin serum at 0.35 %; Ca⁺⁺2 mM. The final concentration of platelets was adjusted to 300,000 platelets/µl. The aggregation was measured turbidimetrically using a lumiaggregometer (Chrono-Log Co., Haventon, PA, USA) at 37° C under stirring at 1,100 r.p.m. The study was also carried out on aliquots of PRP pre-incubated with the compounds under study at 37° C for 5 minutes. The concentration of the antagonists were in all cases 10 µM and aggregation was induced by adding L-PAF diluted in 5 µl of Hepes buffer/albumin, with a final concentration 1.9 x 10⁻⁹M. • 1.2. Release reaction The platelet secretion was measured in the presence of luciferin/luciferase with ATP release in accord with the method described by Feinman et al. (1977.) • 2. STUDIES ON ANESTHETIZED RATS Hypotension induced by an intravenous injection of PAF-aceter. Male Sprague-Dawley rats anesthetized with pentobarbital (50 mg/kg., intraperitoneally) were used.

RABBIT PLATELETS [2] = assay: Platelet release reaction (ATP release, luciferin/luciferase) induced by PAF; type: cell-based, rabbits (male, albino, New Zealand); details: Oryctolagus cuniculus, read-out: % […] REACTION, compound 10 µM, 1-PAF 1.92 nM, pre-incubation 5 minutes, average of six experiments in triplicate
Experimental: as §1

Compound | inhibition at 10 µM (RABBIT PLATELETS [1]) | inhibition at 10 µM (RABBIT PLATELETS [2])
CCSCCOC(=O)C1=C(C)NC(C)=C(C(=O)OC)C1C (stereo not shown) [Example 1, 2-(ethylthio)ethyl-2,6-dimethyl-4-methyl-5-methoxycarbonyl-1,4-dihydropyridin-3-carboxylate] | 44% | 96%
COC(=O)C1=C(C)NC(C)=C(C(=O)OCCSC)C1C (stereo not shown) [Example 2, 2-(methylthio)ethyl-2,6-dimethyl-4-methyl-5-methoxycarbonyl-1,4-dihydropyridin-3-carboxylate] | 26% | 75%
CCOC(=O)C1=C(C)NC(C)=C(C(=O)OCCSC)C1C (stereo not shown) [Example 3, 2,6-(methylthio)ethyl-2,6 dimethyl-5-ethoxycarbonyl-4-methyl-1,4-dihydropyridin-3-carboxylate] | 21% | 78%
CCOC(=O)C1=C(C)NC(C)=C(C(=O)OCCSCC)C1C (stereo not shown) [Example 4, 2-(ethylthio)ethyl-2,6-dimethyl-5-ethoxycarbonyl-4-methyl-1,4-dihydropyridin-3-carboxylate] | 32% | 89%
CCOC(=O)C1=C(C)NC(C)=C(C(=O)OCCSC)C1CC (stereo not shown) [Example 6, 2-(methylthio)ethyl-2,6-dimethyl-4-ethyl-5-ethoxycarbonyl-1,4-dihydropyridin-3-carboxylate] | 32% | 89%
CCCC1C(C(=O)OCC)=C(C)NC(C)=C1C(=O)OCCSC (stereo not shown) [Example 7, 2-(methylthio)ethyl-2,6-dimethyl-5-ethoxycarbonyl-4-n-propyl-1,4-dihydropyridin-3-carboxylate] | 14% | 50%
CCCC1C(C(=O)OCC)=C(C)NC(C)=C1C(=O)OCCSCC (stereo not shown) [Example 8, 2-(ethylthio)ethyl-2,6-dimethyl-5-ethoxycarbonyl-4-n-propyl-1,4-dihydropyridin-3-carboxylate] | 30% | 69%
CCOC(=O)C1=C(C)NC(C)=C(C(=O)OCCSc2ccccc2)C1C (stereo not shown) [Example 9, 2-(phenylthio)ethyl-2,6-dimethyl-5-ethoxycarbonyl-4-methyl-1,4-dihydropyridin-3-carboxylate] | 100% | 100%
CC1=C(C(=O)OCCSc2ccccc2)C(C)C(C(=O)OCC2CCCO2)=C(C)N1 (stereo not shown) [Example 10, 2-(phenylthio)ethyl-2,6-dimethyl-4-methyl 5-(2-tetrahydrofurfuryloxycarbonyl)-1,4-dihydropyridin-3-carboxylate] | 11% | 49%
CC1=C(C(=O)OCCSc2ccccc2)C(C)C(C(=O)OC(C)C)=C(C)N1 (stereo not shown) [Example 11, 2-(phenylthio)ethyl-2,6-dimethyl-5-isopropoxycarbonyl-4-methyl-1,4-dihydropyridin-3-carboxylate] | 33% | 89%
COC(=O)C1=C(C)NC(C)=C(C(=O)OCCSc2ccccc2)C1C (stereo not shown) [Example 12, 2-(phenylthio)ethyl-2,6-dimethyl 4-methyl-5-methoxycarbonyl-1,4-dihydropyridin-3-carboxylate] | 100% | 100%

— patent EP0325187B1, “4-alkyl-1, 4-dihydropyridines with PAF-antagonist activity” (ALTER, S.A., priority 1988, dated 1989)
